Test results as given in publication PMC7282810, “Existence and functions of a kisspeptin neuropeptide signaling system in a non-chordate deuterostome species” (eLife, 2020).
Entries after “also recorded” stand apart in the source; their conditions may differ. *1 amine or outer side, *2 acyl side, *3 side chain or, on linkers, in order; H or OH if unused. Where a SMILES comes first, the peptide text is derived from it. Bridges are numbered along the chain shown (N, C = ends). [ ]: non-standard residue; d: D form. The star is where a group is joined. Leu(3R-OH,Nα-propionyl) = CCC(=O)N[C@H](C(=O)*)[C@H](O)C(C)C; X1 = CC(C)[C@@H](O[*:3])[C@H](N[*:1])C(=O)[*:2]; NMeT = CN[C@H](C(=O)O)[C@@H](C)O; dPhLac = O=C(O)[C@H](O)Cc1ccccc1; NMeA = CN[C@@H](C)C(=O)O; NMeDha = C=C(NC)C(=O)O

Key:
Format in all cases: cell-based
AjKissR2 [1] = target: T1, AjKissR2 (Apostichopus japonicus, UniProt A0A5B7LIE4); assay: cell-based; details: for Effect of inhibitor pre-treatment on AjKiss1a/AjKiss1b-elicited Ca2+ mobilization (in words): 100 nM AjKiss1a or AjKiss1b, pre-treated 12 hr PTX 100 ng/mL, or 1 hr FR900359 1.0 μM, U73122 10 μM, BAPTA-AM 100.0 μM, EGTA 5.0 mM; for Potency in triggering intracellular Ca2+ mobilization via AjKissR2 (in words): HEK293, Fura-2/AM, vertebrate kisspeptins and FITC-AjKiss1a at 1.0 μM
T1 sequence (A0A5B7LIE4 1-327): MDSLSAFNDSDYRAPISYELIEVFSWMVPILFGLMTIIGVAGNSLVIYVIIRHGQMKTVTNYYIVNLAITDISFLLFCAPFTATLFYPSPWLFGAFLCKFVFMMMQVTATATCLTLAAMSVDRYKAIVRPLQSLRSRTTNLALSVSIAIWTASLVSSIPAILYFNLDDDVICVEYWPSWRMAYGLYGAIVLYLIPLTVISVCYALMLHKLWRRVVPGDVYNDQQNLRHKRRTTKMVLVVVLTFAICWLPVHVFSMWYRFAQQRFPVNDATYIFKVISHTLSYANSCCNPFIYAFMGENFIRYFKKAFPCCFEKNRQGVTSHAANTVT
Experimental: (§1) The fluorescent Ca^2+ indicator Fura-2/AM was used to detect intracellular calcium flux ([Li et al., 2010]). Briefly, the HEK293 cells expressing the AjKissR1, AjKissR2 or vertebrate kisspeptin receptor were washed twice with PBS and suspended at 5 × 10^6 cells/mL in Hanks’ balanced salt solution. The cells were then loaded with 3.0 μM Fura-2/AM for 30 min and washed twice in Hanks’ solution. They were then stimulated with the indicated concentrations of different predicted A. japonicus kisspeptins or vertebrate kisspeptins. Finally, intracellular calcium flux was measured for 60 s, by determining the ratio of excitation wavelengths at 340 and 380 nm using a fluorescence spectrometer (Infinite 200 PRO, Tecan, Männedorf, Switzerland). All of the experiments for measuring Ca^2+ mobilization were repeated independently at least three times.

AjKissR1 [2] = target: T2, AjKissR1 (Apostichopus japonicus, UniProt A0A5B7LK60); assay: cell-based; details: for Effect of inhibitor pre-treatment on AjKiss1a/AjKiss1b-elicited Ca2+ mobilization (in words): 100 nM AjKiss1a or AjKiss1b, pre-treated 12 hr PTX 100 ng/mL, or 1 hr FR900359 1.0 μM, U73122 10 μM, BAPTA-AM 100.0 μM, EGTA 5.0 mM; for Potency in triggering intracellular Ca2+ mobilization via AjKissR1 (in words): HEK293, Fura-2/AM, vertebrate kisspeptins and FITC-AjKiss1a at 1.0 μM
T2 sequence (A0A5B7LK60 1-378): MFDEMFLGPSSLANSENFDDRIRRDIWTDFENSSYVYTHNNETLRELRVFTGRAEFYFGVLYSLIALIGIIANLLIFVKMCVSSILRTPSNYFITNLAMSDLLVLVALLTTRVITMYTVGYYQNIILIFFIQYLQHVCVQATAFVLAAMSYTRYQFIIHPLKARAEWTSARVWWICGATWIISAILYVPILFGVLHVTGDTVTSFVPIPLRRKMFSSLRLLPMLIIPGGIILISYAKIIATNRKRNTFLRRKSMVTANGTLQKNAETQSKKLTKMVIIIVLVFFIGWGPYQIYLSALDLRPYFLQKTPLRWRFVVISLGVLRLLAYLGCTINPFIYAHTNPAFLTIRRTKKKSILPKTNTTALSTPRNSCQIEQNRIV
Experimental: as §1

AjKissR2 [3] = target: T1, AjKissR2; assay: ERK1/2 phosphorylation (western blot) in HEK293 cells expressing FLAG-AjKissR2; details: pre-treated 1 hr, U73122 10 μM, Gö6983 1.0 μM; AjKiss1b-10 1.0 μM
Experimental: (§2) To examine the phosphorylation of ERK, cells that expressed AjKissr1/2 or other GPR54s were incubated for the indicated times with different concentrations of kisspeptins. Subsequently, cells were lysed with lysis buffer (Beyotime) that contained protease inhibitor (Roche) at 4°C for 30 min on a rocker and then scraped. Proteins were then electrophoresed on a 10% SDS polyacrylamide gel and transferred to polyvinylidene difluoride (PVDF) membranes. Membranes were blocked with 5% skimmed milk, then probed with rabbit anti-phospho-ERK1/2(Thr^202/Tyr^204) antibody (1:2000; Cell Signaling Technology), followed by detection using HRP-conjugated goat anti-rabbit IgG (Beyotime). Blots were stripped and reprobed using anti-ERK1/2 antibody (1:2000; Cell Signaling Technology) as a control for protein loading.
(§3) Immunoreactive bands were detected with an enhanced chemiluminescent substrate (Beyotime), and the membrane was scanned using a Tanon 5200 Chemiluminescent Imaging System (Tanon Science and Technology, Shanghai, China).

AjKissR1 [4] = target: T2, AjKissR1; assay: ERK1/2 phosphorylation (western blot) in HEK293 cells expressing FLAG-AjKissR1; details: pre-treated 1 hr, U73122 10 μM, Gö6983 1.0 μM; AjKiss1b-10 1.0 μM
Experimental: as §2, §3

Row | Molecule | Effect of inhibitor pre-treatment on AjKiss1a/AjKiss1b-elicited Ca2+ mobilization (in words) (AjKissR2 [1]) | Effect of inhibitor pre-treatment on AjKiss1a/AjKiss1b-elicited Ca2+ mobilization (in words) (AjKissR1 [2]) | Effect of inhibitor on AjKiss1b-10-activated ERK1/2 phosphorylation (in words) (AjKissR2 [3]) | Effect of inhibitor on AjKiss1b-10-activated ERK1/2 phosphorylation (in words) (AjKissR1 [4]) | Potency in triggering intracellular Ca2+ mobilization via AjKissR2 (in words) (AjKissR2 [1]) | Potency in triggering intracellular Ca2+ mobilization via AjKissR1 (in words) (AjKissR1 [2])
1 | CC(=O)OCOC(=O)CN(CC(=O)OCOC(C)=O)c1ccccc1OCCOc1ccccc1N(CC(=O)OCOC(C)=O)CC(=O)OCOC(C)=O [BAPTA-AM, 1,2-bis(o-aminophenoxy)ethane N,N,N',N'-tetraacetic acid acetoxymethyl ester, reference compound] | significantly attenuated | significantly attenuated |  |  |  | 
2 | O=C(O)CN(CCOCCOCCN(CC(=O)O)CC(=O)O)CC(=O)O [EGTA, reference compound] | significantly attenuated | significantly attenuated |  |  |  | 
3 | C=C1C(=O)N[C@@H](C)C(=O)N(C)[C@@H](C)C(=O)N[C@@H]([C@H](OC(=O)[C@@H](NC(=O)CC)[C@H](O)C(C)C)C(C)C)C(=O)N(C)[C@@H]([C@@H](C)OC)C(=O)O[C@H](C(C)C)[C@H](NC(C)=O)C(=O)O[C@H](Cc2ccccc2)C(=O)N1C [FR900359, reference compound] (Ac-[X1][dPhLac][NMeDha]A[NMeA][X1](Leu(3R-OH,Nα-propionyl))[NMeT](Me); ester 1-C) | completely blocked | completely blocked |  |  |  | 
4 | COc1ccc2c(c1)c(C1=C(c3c[nH]c4ccccc34)C(=O)NC1=O)cn2CCCN(C)C [Gö6983] |  |  | significantly blocked | significantly blocked |  | 
5 | COc1ccc2c(c1)CC[C@@H]1[C@@H]2CC[C@]2(C)[C@@H](NCCCCCCN3C(=O)C=CC3=O)CC[C@@H]12 [U73122, reference compound] | significantly attenuated | significantly attenuated | significantly blocked | significantly blocked |  | 
6 | AHYRTLPF-NH2 [AjKiss1a-10, truncated peptide of AjKiss1a] |  |  |  |  | failed to activate | failed to activate
7 | FITC–AGSLDc < CLEASC > EDVERRGRQPNRNAHYRTLPF-NH2 (disulfide) [FITC–AjKiss1a] |  |  |  |  | comparable to that induced by the wild-type neuropeptide | comparable to that induced by the wild-type neuropeptide
8 | FNYNPFGLRF-NH2 [DrKiss2-10, synthetic zebrafish kisspeptin decapeptide, reference compound] |  |  |  |  | higher potency than that of HsKiss1-10; also recorded: potent | much lower potency; also recorded: potent
